Experimental data reported in ChEMBL document CHEMBL3745676, “Alkylamino derivatives of N-benzylpyrazine-2-carboxamide: synthesis and antimycobacterial evaluation” (Medchemcomm, 2015).
≈ marks a conversion by molar mass, not a printed value. Calls of active or inactive are those of the source. The calls are words filed in the database; no cut-off is given here.

Experiments:
Pseudomonas aeruginosa = assay: Antibacterial activity against Pseudomonas aeruginosa CCM 1961 after 24 to 48 hrs by broth microdilution method; type: functional
Nakaseomyces glabratus = assay: Antifungal activity against Candida glabrata 20/I after 24 to 48 hrs by broth microdilution method; type: functional
Mycobacterium avium [1] = assay: Antimycobacterial activity against Mycobacterium avium CNCTC My 152/73 after 5 days by microplate alamar blue assay; type: functional; conditions: CNCTC My 152/73, 120 h
Mycobacterium kansasii = assay: Antimycobacterial activity against Mycobacterium kansasii CNCTC My 235/80 incubated for 5 to 7 days by microplate alamar blue assay; type: functional
Lichtheimia corymbifera = assay: Antifungal activity against Lichtheimia corymbifera 272 after 24 to 48 hrs by broth microdilution method; type: functional
[2] = test system: Trichophyton mentagrophytes; assay: Antifungal activity against Trichophyton mentagrophytes 445 after 72 to 120 hrs by broth microdilution method; type: functional
[3] = Cytotoxicity against human HeLa cells assessed as cell viability after 4 to 6 days by microscopic analysis; type: cell-based
Mycobacterium avium [4] = assay: Antimycobacterial activity against Mycobacterium avium CNCTC My 80/72 after 5 days by microplate alamar blue assay; type: functional; conditions: CNCTC My 80/72, 120 h
[5] = test system: Mycobacterium tuberculosis; assay: Potency index, ratio of pyrazinamide MIC to compound MIC for Mycobacterium tuberculosis H37Rv CNCTC My 331/88; type: functional
[6] = Cytotoxicity against CRFK cells assessed as cell viability after 4 to 6 days by formazan-based MTS assay; design: species or system Felis catus; conditions: cat
[7] = Cytotoxicity against African green monkey Vero cells assessed as cell viability after 4 to 6 days by microscopic analysis; type: cell-based; conditions: chlorocebus sabaeus
Escherichia coli = assay: Antibacterial activity against Escherichia coli CCM 4517 after 24 to 48 hrs by broth microdilution method; type: functional
[8] = Cytotoxicity against MDCK cells assessed as cell viability after 4 to 6 days by formazan-based MTS assay; design: species or system Canis lupus familiaris; conditions: dog
[9] = test system: Mycobacterium tuberculosis; assay: Antimycobacterial activity against Mycobacterium tuberculosis H37Rv CNCTC My 331/88 incubated for 10 to 14 days by microplate alamar blue assay; type: functional
Staphylococcus aureus = assay: Antibacterial activity against methicillin-resistant Staphylococcus aureus H 5996/08 after 24 to 48 hrs by broth microdilution method; type: functional, organism-based
[10] = Cytotoxicity against HEL cells assessed as cell viability after 4 to 6 days by microscopic analysis; type: cell-based; conditions: human
Candida tropicalis = assay: Antifungal activity against Candida tropicalis 156 after 24 to 48 hrs by broth microdilution method; type: functional
Candida albicans = assay: Antifungal activity against Candida albicans ATCC 44859 after 24 to 48 hrs by broth microdilution method; type: functional
[11] = Lipophilicity, logK of the compound by RP-HPLC analysis; type: physicochemical
Klebsiella pneumoniae [12] = assay: Antibacterial activity against ESBL positive Klebsiella pneumoniae J 14368/08 after 24 to 48 hrs by broth microdilution method; type: functional
Trichosporon asahii = assay: Antifungal activity against Trichosporon asahii 1188 after 24 to 48 hrs by broth microdilution method; type: functional
Klebsiella pneumoniae [13] = assay: Antibacterial activity against Klebsiella pneumoniae D 11750/08 after 24 to 48 hrs by broth microdilution method; type: functional
Influenza A virus [14] = assay: Antiviral activity against Influenza A virus (A/Puerto Rico/8/(H1N1)) assessed as inhibition of virus-induced cytopathic effect after 3 to 6 days by microscopic analysis; type: functional, organism-based
Aspergillus fumigatus = assay: Antifungal activity against Aspergillus fumigatus 231 after 24 to 48 hrs by broth microdilution method; type: functional
[15] = test system: Mycobacterium tuberculosis; assay: Inhibition of mycolic acid synthesis in [1,2-14C]-acetate-labelled Mycobacterium tuberculosis H37Ra at 5 ug/ml preincubated for 20 hrs followed by radiolabelling measured after 24 hrs by autoradiography; type: functional, organism-based
Pichia kudriavzevii = assay: Antifungal activity against Candida krusei E28 after 24 to 48 hrs by broth microdilution method; type: functional
[16] = Cytotoxicity against MDCK cells assessed as cell viability after 4 to 6 days by microscopic analysis; type: cell-based, Canis lupus familiaris; conditions: dog
Influenza A virus [17] = assay: Antiviral activity against Influenza A virus (A/Puerto Rico/8/(H1N1)) assessed as inhibition of virus-induced cytopathic effect after 3 to 6 days by formazan-based MTS assay; type: functional, organism-based
[18] = test system: Mycobacterium tuberculosis; assay: Antimycobacterial activity against Mycobacterium tuberculosis H37Rv; type: functional

Compound	MIC95 (Pseudomonas aeruginosa) [µM]	MIC (Nakaseomyces glabratus) [µM]	MIC (Mycobacterium avium [1]) [µg/mL]	MIC (Mycobacterium kansasii)	MIC (Lichtheimia corymbifera) [µM]	MIC [2] [µM]	MCC [3] [µM]	MIC (Mycobacterium avium [4]) [µg/mL]	CC50 [6] [µM]	MCC [7] [µM]	MIC95 (Escherichia coli) [µM]	CC50 [8] [µM]	MIC [9] [µM]	MCC [10] [µM]	MIC (Candida tropicalis) [µM]	MIC (Candida albicans) [µM]	log K [11]	MIC95 (Klebsiella pneumoniae [12]) [µM]	MIC (Trichosporon asahii) [µM]	MIC95 (Klebsiella pneumoniae [13]) [µM]	also measured
CCCCCCCNc1cncc(C(=O)NCc2ccccc2)n1	> 500	> 500	> 100	38 µM	> 500	> 500	> 100	> 100	> 100	> 100	> 500	2.4	10 (≈ 3.26 µg/mL)	> 100	> 500	> 500	1.207	> 500	> 500	> 500	Ratio [5]: <=20; Activity (Staphylococcus aureus): inactive; EC50 (Influenza A virus [14]): > 100 µM; MIC (Aspergillus fumigatus): > 500 µM; inhibition [15]: inactive; MIC (Pichia kudriavzevii): > 500 µM; MCC [16]: 4 µM; EC50 (Influenza A virus [17]): > 100 µM
CCCCNc1cncc(C(=O)NCc2ccccc2)n1	> 500	> 500	> 100	176 µM	> 500	> 500	> 100	> 100	> 100	100	> 500	66	44 (≈ 12.5 µg/mL)	> 100	> 500	> 500	0.549	> 500	> 500	> 500	Activity (Staphylococcus aureus): inactive; EC50 (Influenza A virus [14]): > 100 µM; MIC (Aspergillus fumigatus): > 500 µM; MIC (Pichia kudriavzevii): > 500 µM; MCC [16]: 100 µM; EC50 (Influenza A virus [17]): > 100 µM
O=C(NCc1ccccc1)c1cnc(Cl)cn1			> 100	100 µg/mL				> 100									0.186				MIC [18]: 100 µM (≈ 24.8 µg/mL)
CCCCCCNc1cnc(C(=O)NCc2ccccc2)cn1	> 500	> 500	> 100	> 100 µg/mL	> 500	> 500	> 100	> 100	> 100	≥ 100	> 500	> 100	10 (≈ 3.12 µg/mL)	> 100	> 500	> 500	0.859	> 500	> 500	> 500	Ratio [5]: <=20; EC50 (Influenza A virus [14]): 52 µM; MIC (Aspergillus fumigatus): > 500 µM; MIC (Pichia kudriavzevii): > 500 µM; MCC [16]: > 100 µM; EC50 (Influenza A virus [17]): 62 µM
